Laboratory results published in US20200055883A1, “CYCLIC DI-NUCLEOTIDES DERIVATIVE FOR THE TREATMENT OF CANCER” (Eisai R&D Management Co., Ltd., priority 2017, published 2020).
Where two headings read alike, the source gives them in different places. Each block holds one molecule with its values, some of them ahead of it.

Key:
Human STING HAQ = Human STING HAQ (Homo sapiens, UniProt Q86WV6, G230A/H232R/R293Q/R71H); assay: HAQ STING agonist activity reporter assay (THP1-Dual cells)
REF Human STING = REF Human STING (Homo sapiens, UniProt Q86WV6); assay: STING variant specific reporter assay, REF-STING (THP1-Dual KO-STING cells)
Sequence of REF Human STING (Q86WV6 whole entry): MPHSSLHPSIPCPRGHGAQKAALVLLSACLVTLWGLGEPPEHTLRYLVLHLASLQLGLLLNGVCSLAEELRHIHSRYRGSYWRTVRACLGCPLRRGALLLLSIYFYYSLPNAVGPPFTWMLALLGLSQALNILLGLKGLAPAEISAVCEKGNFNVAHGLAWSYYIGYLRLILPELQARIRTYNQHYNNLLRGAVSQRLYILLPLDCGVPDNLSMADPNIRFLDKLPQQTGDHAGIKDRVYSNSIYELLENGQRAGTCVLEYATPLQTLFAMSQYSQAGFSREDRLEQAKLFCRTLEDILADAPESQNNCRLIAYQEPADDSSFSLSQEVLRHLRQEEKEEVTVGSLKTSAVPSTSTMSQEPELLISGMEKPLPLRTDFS

AQ Human STING = AQ Human STING (Homo sapiens, UniProt Q86WV6, G230A/H232R/R293Q); assay: STING variant specific reporter assay, AQ-STING (THP1-Dual KO-STING cells); conditions: ammonium salt form of each compound
Sequence of AQ Human STING (Q86WV6 whole entry G230A/H232R/R293Q): as the sequence (Q86WV6 whole entry) above, with G230A, H232R, R293Q counted along it

WT Human STING = WT Human STING (Homo sapiens, UniProt Q86WV6, H232R); assay: STING variant specific reporter assay, WT-STING (THP1-Dual KO-STING cells); conditions: Human STING EC50 (μM) WT, ammonium salt form of each compound
Sequence of WT Human STING (Q86WV6 whole entry H232R): as the sequence (Q86WV6 whole entry) above, with H232R counted along it

[1] = hSTING EC50 (μM) HAQ, Table 6, ammonium salt form, except Compounds 26, 33, 34 tested as bis-TEA salts
[2] = Human STING EC50 (μM) AQ, Table 5
[3] = Human STING EC50 (μM) HAQ, Table 5, ammonium salt form of each compound, 20 hrs
[4] = hSTING EC50 (μM) HAQ, Table 8, ammonium salt form of each compound
[5] = Human STING EC50 (μM) AQ, Table 4
[6] = Human STING EC50 (μM) HAQ, Table 4, ammonium salt form of each compound, 20 hrs

Sequence of Human STING HAQ (Q86WV6 whole entry R71H/G230A/H232R/R293Q): as the sequence (Q86WV6 whole entry) above, with R71H, G230A, H232R, R293Q counted along it

EC50 (Human STING HAQ; hSTING EC50 (μM) HAQ, Table 7, ammonium salt form of each compound): 20.2 µM
SMILES: O=P1(S)OC[C@H]2OC3[C@H](OP(=O)(S)OC[C@H]4O[C@H]([C@H](O1)[C@@H]4O)n1cnc4c(ncnc41)NC/C=C/CNc1ncnc4c1ncn43)[C@@H]2O (stereo partly shown) [Compound 31]

SMILES: O=[P@]1(S)OC[C@H]2OC3[C@H](F)[C@@H]2O[P@](=O)(S)OC[C@H]2O[C@H]([C@H](F)[C@@H]2O1)n1cnc2c(ncnc21)NCC1NC1CNc1ncnc2c1ncn23 (single isomer, unassigned) [Compound 35]
EC50 (Human STING HAQ; [1]): 44.5 µM

EC50 (Human STING HAQ; [1]): 21.5 µM
SMILES: O=[P@]1(S)OC[C@H]2OC3[C@H](F)[C@@H]2O[P@](=O)(S)OC[C@H]2O[C@H]([C@H](F)[C@@H]2O1)n1cnc2c(ncnc21)CC/C=C/CCc1ncnc2c1ncn23 [Compound 33]

EC50 (Human STING HAQ; [1]): 0.62 µM
SMILES: O=[P@]1(S)OC[C@H]2OC3[C@H](F)[C@@H]2O[P@](=O)(S)OC[C@H]2O[C@H]([C@H](F)[C@@H]2O1)n1cnc2c(ncnc21)NCC#CCNc1ncnc2c1ncn23 [Compound 29]

SMILES: Nc1nc2c3ncn(c3n1)[C@@H]1O[C@@H]3COP(O)(=S)O[C@H]4[C@@H](F)[C@@H](O[C@@H]4COP(O)(=S)O[C@H]3[C@H]1F)n1cnc3c(ncnc31)NC/C=C/CO2 (single isomer, unassigned) [Compound 22]
EC50 (Human STING HAQ; hSTING EC50 (μM) HAQ): 41.2 µM

EC50 (Human STING HAQ; [1]): 2.3 µM
SMILES: O=[P@@]1(S)OC[C@H]2O[C@@H]3[C@H](F)[C@@H]2O[P@](=O)(S)OC[C@H]2OC([C@H](F)[C@@H]2O1)n1cnc2c(ncnc21)CC/C=C/CCc1ncnc2c1ncn23 [Compound 34]

EC50 (Human STING HAQ; [1]): 2.3 µM
SMILES: O=[P@@]1(S)OC[C@H]2O[C@@H]3[C@H](F)[C@@H]2O[P@](=O)(S)OC[C@H]2OC([C@H](F)[C@@H]2O1)n1cnc2c(ncnc21)OC/C=C/COc1ncnc2c1ncn23 [Compound 26]

EC50 (REF Human STING): 42 µM
EC50 (AQ Human STING; [2]): 9 µM
EC50 (WT Human STING; Table 5): 5.7 µM
EC50 (Human STING HAQ; [3]): 10.5 µM
SMILES: O=[P@]1(S)OC[C@H]2OC3[C@H](F)[C@@H]2O[P@](=O)(S)OC[C@H]2O[C@H]([C@H](F)[C@@H]2O1)n1cnc2c(ncnc21)NCCCCNc1ncnc2c1ncn23 [Compound 6]

SMILES: Nc1nc2c3ncn(c3n1)[C@@H]1O[C@@H]3COP(O)(=S)O[C@H]4[C@@H](F)[C@@H](O[C@@H]4COP(O)(=S)O[C@H]3[C@H]1F)n1cnc3c(ncnc31)NC/C=C/CO2 (stereo partly shown) [Compound 23]
EC50 (Human STING HAQ; hSTING EC50 (μM) HAQ): 62.3 µM

EC50 (REF Human STING): 31.7 µM
EC50 (AQ Human STING; [2]): 30.9 µM
EC50 (WT Human STING; Table 5): 18 µM
EC50 (Human STING HAQ; [3]): 39.2 µM
SMILES: O=P1(O)OC[C@H]2O[C@@H]3[C@H](F)[C@@H]2OP(=O)(O)OC[C@H]2OC([C@H](F)[C@@H]2O1)n1cnc2c(ncnc21)NC/C=C/CNc1ncnc2c1ncn23 [Compound 9]

SMILES: O=P1(O)OC[C@H]2OC3[C@H](F)[C@@H]2O[P@@](O)(=S)OC[C@H]2O[C@H]([C@H](F)[C@@H]2O1)n1cnc2c(ncnc21)NC/C=C/CNc1ncnc2c1ncn23 [Compound 27]
EC50 (Human STING HAQ; hSTING EC50 (μM) HAQ): 9.8 µM

EC50 (Human STING HAQ; [3]): 6.8 µM
SMILES: O=P1(S)OC[C@H]2O[C@@H]3[C@H](F)[C@@H]2OP(=O)(S)OC[C@H]2OC([C@H](F)[C@@H]2O1)n1cnc2c(ncnc21)NCC/C=C/CNc1ncnc2c1ncn23 (single isomer, unassigned) [Compound 11]

EC50 (REF Human STING; read-out: hSTING EC50 (μM) REF, Table 6, ammonium salt form, except Compounds 26, 33, 34 tested as bis-TEA salts): > 100 µM
EC50 (Human STING HAQ; [1]): 15.7 µM
SMILES: O=[P@]1(S)OC[C@H]2OC3[C@H](F)[C@@H]2O[P@](=O)(S)OC[C@H]2O[C@H]([C@H](F)[C@@H]2O1)n1cnc2c(ncnc21)NC[C@H](O)[C@@H](O)CNc1ncnc2c1ncn23 [Compound 32]

EC50 (Human STING HAQ; [4]): 29.6 µM
SMILES: O=P1(S)N[C@@H]2[C@H]3COP(=O)(S)N[C@H]4[C@@H](O)[C@@H](O[C@@H]4CO1)n1cnc4c(ncnc41)NC/C=C/CNc1ncnc4c1ncn4C(O3)[C@@H]2O (stereo partly shown) [Compound 39]

SMILES: Nc1nc2c3ncn(c3n1)[C@@H]1O[C@@H]3COP(O)(=S)O[C@H]4[C@@H](F)[C@@H](O[C@@H]4COP(O)(=S)O[C@H]3[C@H]1F)n1cnc3c(ncnc31)NC/C=C/CO2 (single isomer, unassigned) [Compound 21]
EC50 (Human STING HAQ; hSTING EC50 (μM) HAQ): 83.3 µM

SMILES: O=P1(O)OC[C@H]2OC3[C@H](F)[C@@H]2O[P@](O)(=S)OC[C@H]2O[C@H]([C@H](F)[C@@H]2O1)n1cnc2c(ncnc21)NC/C=C/CNc1ncnc2c1ncn23 [Compound 28]
EC50 (Human STING HAQ; hSTING EC50 (μM) HAQ): 10.2 µM

SMILES: O=[P@]1(S)OC[C@H]2OC3[C@H](F)[C@@H]2O[P@](=O)(S)OC[C@H]2O[C@H]([C@H](F)[C@@H]2O1)n1cnc2c(ncnc21)NCC1NC1CNc1ncnc2c1ncn23 (single isomer, unassigned) [Compound 36]
EC50 (Human STING HAQ; [1]): 31.4 µM

EC50 (REF Human STING): 66.7 µM
EC50 (AQ Human STING; [5]): 20.4 µM
EC50 (WT Human STING; Table 4): 25.7 µM
EC50 (Human STING HAQ; [6]): 28.8 µM
SMILES: O=[P@@]1(S)OC[C@H]2OC3[C@H](F)[C@@H]2O[P@](=O)(S)OC[C@H]2O[C@H]([C@H](O1)[C@@H]2O)n1cnc2c(ncnc21)NC/C=C/CNc1ncnc2c1ncn23 [Compound 16]

EC50 (Human STING HAQ; [3]): 8.2 µM
SMILES: O=P1(S)OC[C@H]2O[C@@H]3[C@H](F)[C@@H]2OP(=O)(S)OC[C@H]2OC([C@H](F)[C@@H]2O1)n1cnc2c(ncnc21)NCC/C=C/CNc1ncnc2c1ncn23 (single isomer, unassigned) [Compound 12]

EC50 (AQ Human STING; [2]): 82.2 µM
EC50 (WT Human STING; Table 5): > 100 µM
EC50 (Human STING HAQ; [3]): 87.2 µM
SMILES: O=P1(S)OC[C@H]2O[C@@H]3[C@H](F)[C@@H]2OP(=O)(S)OC[C@H]2OC([C@H](F)[C@@H]2O1)n1cnc2c(ncnc21)NCC/C=C/CNc1ncnc2c1ncn23 (single isomer, unassigned) [Compound 37]

EC50 (Human STING HAQ; [4]): 79.9 µM
SMILES: O=[P@]1(S)N[C@@H]2[C@H]3CO[P@](=O)(S)N[C@H]4[C@@H](O)[C@@H](O[C@@H]4CO1)n1cnc4c(ncnc41)NC/C=C/CNc1ncnc4c1ncn4C(O3)[C@@H]2O [Compound 38]

EC50 (Human STING HAQ; [1]): 94.1 µM
SMILES: O=P1(S)OC[C@H]2O[C@@H]3[C@H](F)[C@@H]2OP(=O)(S)OC[C@H]2O[C@H]([C@H](F)[C@@H]2O1)n1cnc2c(ncnc21)NC/C=C/COc1ncnc2c1ncn23 (single isomer, unassigned) [Compound 19]

EC50 (REF Human STING): 66.7 µM
EC50 (AQ Human STING; [5]): 13.1 µM
EC50 (WT Human STING; Table 4): 11.6 µM
EC50 (Human STING HAQ; [6]): 24.7 µM
SMILES: O=[P@]1(S)OC[C@H]2OC3[C@H](F)[C@@H]2O[P@](=O)(S)OC[C@H]2O[C@H]([C@H](O1)[C@@H]2O)n1cnc2c(ncnc21)NC/C=C/CNc1ncnc2c1ncn23 [Compound 15]

EC50 (Human STING HAQ; [1]): 2.3 µM
SMILES: O=P1(S)OC[C@H]2O[C@@H]3[C@H](F)[C@@H]2OP(=O)(S)OC[C@H]2O[C@H]([C@H](F)[C@@H]2O1)n1cnc2c(ncnc21)NC/C=C/COc1ncnc2c1ncn23 (single isomer, unassigned) [Compound 18]

EC50 (REF Human STING; read-out: Human STING EC50 (μM) REF, Table 4, ammonium salt form of each compound): > 100 µM
EC50 (AQ Human STING; read-out: Human STING EC50 (μM) AQ, Table 4): > 100 µM
EC50 (WT Human STING; Table 4): 69.8 µM
EC50 (Human STING HAQ; [6]): 58.2 µM
SMILES: O=[P@@]1(S)OC[C@H]2OC3[C@H](O)[C@@H]2O[P@](=O)(S)OC[C@H]2O[C@H]([C@H](O1)[C@@H]2O)n1cnc2c(ncnc21)NC/C=C/CNc1ncnc2c1ncn23 [Compound 14]

EC50 (REF Human STING): > 100 µM
EC50 (AQ Human STING; [2]): 81 µM
EC50 (WT Human STING; Table 5): 68.7 µM
EC50 (Human STING HAQ; [3]): 69.7 µM
SMILES: O=P1(S)OC[C@H]2O[C@@H]3[C@H](F)[C@@H]2OP(=O)(S)OC[C@H]2OC([C@H](F)[C@@H]2O1)n1cnc2c(ncnc21)NCC/C=C/CNc1ncnc2c1ncn23 (single isomer, unassigned) [Compound 8]

EC50 (Human STING HAQ; [1]): 2.8 µM
SMILES: O=P1(S)OC[C@H]2O[C@@H]3[C@H](F)[C@@H]2OP(=O)(S)OC[C@H]2O[C@H]([C@H](F)[C@@H]2O1)n1cnc2c(ncnc21)NC/C=C/COc1ncnc2c1ncn23 (single isomer, unassigned) [Compound 20]

EC50 (Human STING HAQ; [6]): 26.7 µM
SMILES: O=[P@]1(S)OC[C@H]2OC3[C@H](O)[C@@H]2O[P@](=O)(S)OC[C@H]2O[C@H]([C@H](O1)[C@@H]2O)n1cnc2c(ncnc21)NC/C=C/CNc1ncnc2c1ncn23 [Compound 13]
